Patent US20250041323A1, “BDNF PRODUCTION PROMOTER” (YAMASA CORPORATION, priority 2022, published 2025)

Legend:
[1] = system: BDNF mRNA in C2C12 cell-derived myotube cells; assay: BDNF gene expression promoting effect-1: BDNF mRNA by real-time PCR in C2C12 cell-derived myotube cells; format: cell-based, mouse; conditions: 1 mM, 4 hours, corrected to β-actin mRNA, vs control without test substance, Dunnett's test, n=3
Protocol: Mouse myoblast cell line C2C12 cells (RIKEN BRC, RCB0987) were suspended in a growth medium (DMEM containing 10% FBS and antibiotics), seeded in a 24-well plate, and cultured in an incubator at 37° C. and 5% CO2 until the cell density reached 70-90%. The growth medium was removed and replaced with a differentiation induction medium (DMEM containing 2% horse serum and antibiotics). After culturing it for 6 days while changing the medium once every 2 days, cytidylic acid (CMP) or uridylic acid (UMP) was added to a final concentration of 1 mM and cultured for 4 hours. The medium was removed, and the total RNA was extracted from the cells using NucleoSpin® RNA (TAKARA BIO INC).
Using the total RNA as a template, a reverse transcription reaction solution was prepared using ReverTra Ace® qPCR RT Kit (TOYOBO). The reverse transcription reaction solution, GoTaq qPCR Master Mix (Promega), and a real-time PCR device Thermal Cycler Dice® Real Time System (TAKARA BIO INC) were used to measure amounts of mRNAs of BDNF and β-actin as an internal standard. Analysis was performed by relative quantification, and the amount of the mRNA was corrected using the amount of mRNA of β-actin as an endogenous control.
The threshold of statistical significance was set at 5%. In addition, unless otherwise specified, including the following Examples, each sample was examined at n=3.

[2] = system: BDNF mRNA in PC-12 cells; assay: BDNF gene expression promoting effect-3: BDNF mRNA by real-time PCR in PC-12 cells (uridine); format: cell-based, rat; conditions: 200 μM, 1 hour, n=3
Protocol: PC-12 cells were suspended in DMEM containing 5% FBS (fetal bovine serum), 10% horse serum, and antibiotics (100 units/ml of penicillin, 100 μg/ml of streptomycin), seeded on a collagen-coated 24-well plate at a density of 2.4×10^5 cells/well, and cultured in an incubator at 37° C. and 5% CO2 for 18 hours. Uridine, a precursor of uridylic acid, was added to a final concentration of 200 μM, and cultured for 1 hour. Subsequently, mRNA was extracted, and the amount of mRNA of BDNF was evaluated by reverse transcription and real-time PCR analysis in the same procedure as that of Example 1.

[3] = system: BDNF protein in PC-12 cells; assay: BDNF protein by Rat BDNF ELISA in PC-12 cell lysate; format: cell-based; conditions: 200 µM, 24 hours, t-test vs control, n=3
Protocol: PC-12 cells were suspended in DMEM containing 20% FBS and antibiotics, seeded on a collagen-coated 24-well plate at a density of 2.4×10^5 cells/well, and cultured in an incubator at 37° C. and 5% CO2 for 18 hours. Uridine was added to a final concentration of 200 µM, and cultured for 24 hours. The medium was removed by suction, and 100 μl of RIPA buffer (50 mM Tris-HCl (pH 7.6), 150 mM NaCl, 1% NP-40, 0.5% sodium deoxycholate, 1% SDS) containing 1% protease inhibitor cocktail (nacalai tesque) was added, and the cells were disrupted by pipetting and ultrasonication. The amount of BDNF in the cell lysate was measured using a Rat BDNF ELISA Kit (RayBiotech). The amount of protein in the cell lysate was measured using a Micro BCA™ Protein Assay Kit (Thermo Fisher Scientific), and the amount of BDNF per total protein mass was calculated. […] The threshold for statistical significance was set at 5%.

[4] = system: BDNF mRNA in PC-12 cells; assay: BDNF gene expression promoting effect-2: BDNF mRNA by real-time PCR in PC-12 cells (uridylic acid); format: cell-based, rat; conditions: 500 µM, 4 hours, n=3
Protocol: Rat adrenal medulla brown tumor-derived cells (PC-12 cells, JCRB0733), used as nervous system model cells, were suspended in DMEM containing 20% FBS and antibiotics, seeded on a collagen-coated 24-well plate at a density of 2.4×10^5 cells/well, and cultured in an incubator at 37° C. and 5% CO2 for 18 hours. Uridylic acid (UMP) was added to a final concentration of 500 µM, and cultured for 4 hours.
Subsequently, mRNA was extracted and an amount of mRNA of BDNF was evaluated by reverse transcription and real-time PCR analysis in the same procedure as that of Example 1.

| Structure (SMILES) | amount of mRNA of BDNF [1] | amount of mRNA of BDNF [2] | amount of BDNF per total protein mass [3] | amount of mRNA of BDNF [4] |
| --- | --- | --- | --- | --- |
| Nc1ccn([C@@H]2O[C@H](COP(=O)(O)O)[C@@H](O)[C@H]2O)c(=O)n1 [cytidylic acid] | significantly increased |  |  |  |
| O=c1ccn([C@@H]2O[C@H](CO)[C@@H](O)[C@H]2O)c(=O)[nH]1 [uridine] |  | significantly increased | significantly increased |  |
| O=c1ccn([C@@H]2O[C@H](COP(=O)(O)O)[C@@H](O)[C@H]2O)c(=O)[nH]1 [uridylic acid] | significantly increased |  |  | significantly increased |
